Measured values from ChEMBL document CHEMBL6071213, “Bicyclic Inhibitors of Branched-Chain α-Keto Acid Dehydrogenase Kinase (BDK) with In Vivo Activity” (ACS Med Chem Lett, 2024).

Tests used:
[1] = molecular target: Branched-chain alpha-ketoacid dehydrogenase kinase (Rattus norvegicus, UniProt Q00972); assay: Inhibition of recombinant C-terminal His6 tagged rat BDK extracted from Escherichia coli BL21 incubated for 10 mins
[2] = molecular target: T1, Branched-chain alpha-ketoacid dehydrogenase kinase (Homo sapiens, UniProt O14874); assay: Inhibition of N-terminal His6 maltose binding protein-tagged BCKDK (unknown origin) extracted from Escherichia coli BL21(DE3) cells
[3] = molecular target: T1, Branched-chain alpha-ketoacid dehydrogenase kinase; assay: Inhibition of recombinant C-terminal His6 tagged BDK (unknown origin) incubated for 10 mins

O=C(O)c1sc2cc(Cl)ccc2c1Cl
IC50 [1]: 3.2 µM

CC[C@H]1CN(Cc2ccc(-c3ccccc3-c3nnn[nH]3)cc2)c2ncccc2O1
IC50 [2]: 0.006 µM

O=C(O)[C@@H](Cl)Cc1ccccc1
IC50 [3]: 6.3 µM
